Assay results as given in ChEMBL document CHEMBL1201862, “PubChem BioAssay data set” (2004).
The source made the active and inactive calls.

Assays:
[1] = molecular target: T1, Tyrosine-protein phosphatase non-receptor type 22 (Homo sapiens, UniProt Q9Y2R2); format: functional
T1 sequence (Q9Y2R2 whole entry): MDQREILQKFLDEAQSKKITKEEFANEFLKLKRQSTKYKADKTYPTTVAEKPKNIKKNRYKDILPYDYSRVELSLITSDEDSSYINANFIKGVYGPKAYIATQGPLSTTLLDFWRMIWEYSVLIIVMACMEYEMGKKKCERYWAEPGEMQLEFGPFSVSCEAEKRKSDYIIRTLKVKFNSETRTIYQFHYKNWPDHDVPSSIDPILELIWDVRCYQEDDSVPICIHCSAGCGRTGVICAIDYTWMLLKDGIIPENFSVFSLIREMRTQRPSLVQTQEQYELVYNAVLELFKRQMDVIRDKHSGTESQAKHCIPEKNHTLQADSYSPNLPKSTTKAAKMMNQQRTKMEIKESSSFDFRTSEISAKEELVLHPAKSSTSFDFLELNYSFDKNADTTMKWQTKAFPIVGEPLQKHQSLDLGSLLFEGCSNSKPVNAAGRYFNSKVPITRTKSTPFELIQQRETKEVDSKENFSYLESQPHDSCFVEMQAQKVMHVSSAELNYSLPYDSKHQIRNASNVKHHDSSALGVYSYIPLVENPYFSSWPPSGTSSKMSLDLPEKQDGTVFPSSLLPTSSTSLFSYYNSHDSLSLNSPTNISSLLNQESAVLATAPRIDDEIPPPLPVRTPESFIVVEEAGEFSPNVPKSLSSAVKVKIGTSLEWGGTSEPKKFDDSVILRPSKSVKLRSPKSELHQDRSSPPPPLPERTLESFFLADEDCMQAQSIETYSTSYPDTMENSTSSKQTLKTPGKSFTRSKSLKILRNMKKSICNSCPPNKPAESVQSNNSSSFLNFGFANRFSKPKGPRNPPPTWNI

[2] = molecular target: T2, Tyrosine-protein phosphatase non-receptor type 7 (Homo sapiens, UniProt P35236); format: functional
T2 sequence (P35236 whole entry): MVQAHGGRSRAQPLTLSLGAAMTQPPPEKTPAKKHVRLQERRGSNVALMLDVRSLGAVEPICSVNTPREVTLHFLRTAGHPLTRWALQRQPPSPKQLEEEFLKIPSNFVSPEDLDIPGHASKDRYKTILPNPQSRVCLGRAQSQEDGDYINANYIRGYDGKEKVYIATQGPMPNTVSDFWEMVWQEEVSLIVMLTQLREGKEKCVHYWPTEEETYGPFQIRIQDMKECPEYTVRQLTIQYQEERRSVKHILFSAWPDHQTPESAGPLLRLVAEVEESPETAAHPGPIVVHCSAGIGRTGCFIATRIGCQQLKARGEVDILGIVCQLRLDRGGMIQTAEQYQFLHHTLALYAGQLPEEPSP

[3] = molecular target: T1, Tyrosine-protein phosphatase non-receptor type 22; format: functional; remark: listed apart in the source
Mu-type opioid receptor [4] = molecular target: T3, Mu-type opioid receptor (Homo sapiens, UniProt P35372); assay: HTS Image-Based Screen for Agonists of the MOR Receptor. [Related pubchem assays (depositor defined):AID1777, AID1785, AID1786, AID2133]; format: functional
Vero [5] = assay: cells; format: functional; settings: Chlorocebus sabaeus
[6] = molecular target: T4, Delta-type opioid receptor (Homo sapiens, UniProt P41143); assay: HTS Image-Based Screen for Antagonists of the DOR Receptor. [Related pubchem assays (depositor defined):AID1777, AID1785, AID1786, AID2133]; format: functional
[7] = molecular target: T5, Kappa-type opioid receptor (Homo sapiens, UniProt P41145); format: functional
Vero [8] = assay: cells; format: functional, cell-based; settings: Chlorocebus sabaeus
[9] = molecular target: T4, Delta-type opioid receptor; assay: HTS Image-Based Screen for Agonists of the DOR Receptor. [Related pubchem assays (depositor defined):AID1777, AID1786, AID2133]; format: functional
[10] = molecular target: T5, Kappa-type opioid receptor; format: functional; remark: listed apart in the source
Beta-galactosidase = Beta-galactosidase (Escherichia coli, UniProt Q8VNN2); format: functional
[11] = molecular target: T6, Rac GTPase-activating protein 1 (Homo sapiens, UniProt Q9H0H5); assay: MgcRacGAP GTPase-activating activity inhibitors, confirmation, biochemical, ADP Hunter fluorescence, primary and confirmatory (AID 624330); format: functional
T6 sequence (Q9H0H5 whole entry): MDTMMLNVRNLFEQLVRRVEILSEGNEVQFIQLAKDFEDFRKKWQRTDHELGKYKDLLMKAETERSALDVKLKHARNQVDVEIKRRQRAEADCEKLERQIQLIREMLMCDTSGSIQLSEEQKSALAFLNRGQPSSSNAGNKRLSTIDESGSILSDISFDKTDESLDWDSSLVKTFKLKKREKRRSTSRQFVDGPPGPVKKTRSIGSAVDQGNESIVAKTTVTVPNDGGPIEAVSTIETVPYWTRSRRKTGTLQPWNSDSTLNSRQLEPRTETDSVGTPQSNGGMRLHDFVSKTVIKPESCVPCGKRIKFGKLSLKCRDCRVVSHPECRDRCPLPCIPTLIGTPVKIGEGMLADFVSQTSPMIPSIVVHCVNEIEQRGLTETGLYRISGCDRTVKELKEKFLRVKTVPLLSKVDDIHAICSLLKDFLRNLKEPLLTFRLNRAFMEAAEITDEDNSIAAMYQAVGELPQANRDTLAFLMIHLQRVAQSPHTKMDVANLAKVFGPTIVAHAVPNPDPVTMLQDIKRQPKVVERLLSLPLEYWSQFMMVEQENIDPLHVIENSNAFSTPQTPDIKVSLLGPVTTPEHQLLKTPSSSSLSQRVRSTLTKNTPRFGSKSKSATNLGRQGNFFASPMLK

[12] = Luminescence Cell-Based Dose Confirmation HTS to Identify Activators of 5'UTR Stem-Loop Driven Alpha-Synuclein mRNA Translation in H4 Neuroglioblastoma Cells. [Related pubchem assays: 1829 (Project Summary), 1814 (Primary HTS)]; format: functional
H4 = assay: Luminescence Cell-Based Dose Response HTS to Identify Activators of 5'UTR Stem-Loop Driven Prion Protein mRNA Translation in H4 Neuroglioblastoma Cells. [Related pubchem assays: 1829 (Project Summary), 1814 (Primary HTS)]; format: functional; settings: Homo sapiens
[13] = Luminescence Cell-Based Dose Response HTS to Identify Activators of Luciferase Translation or Activity in H4 […] Cells. [Related pubchem assays: 1829 (Project Summary), 1814 (Primary HTS)]; format: functional
[14] = molecular target: Sphingosine 1-phosphate receptor 4 (Homo sapiens, UniProt O95977); assay: Fluorescence dose response cell-based high throughput screening assay for agonists of the Sphingosine 1-Phosphate Receptor 4 (S1P4). [Related pubchem assays: 1509 (Primary screen.), 1523 (Confirmation screen in triplicates.)]; format: functional
[15] = molecular target: Sphingosine 1-phosphate receptor 1 (Homo sapiens, UniProt P21453); assay: Fluorescence-based counterscreen assay for S1P4 agonists: Cell-based dose response high throughput screening assay to identify agonists of the Sphingosine 1-Phosphate Receptor 1 (S1P1). [Related pubchem assays (depositor defined):AID1509, AID1523, AID1801, AID463107, AID463118, AID463119, AID463122, AID463123, AID463129, AID463225, AID504400, AID504460]; format: functional
[16] = molecular target: T5, Kappa-type opioid receptor; assay: KOR agonist analogs, arrestin-GFP redistribution, SAR follow-up, imaging, image-based, set 3 (AID 488833); format: functional
[17] = molecular target: T4, Delta-type opioid receptor; assay: SAR Analysis of Agonists of the DOR Receptor using an Image-Based Assay - Set 3. [Related pubchem assays (depositor defined):AID1777, AID1786]; format: functional
Mu-type opioid receptor [18] = molecular target: T3, Mu-type opioid receptor; assay: SAR Analysis of Agonists of the MOR Receptor using an Image-Based Assay - Set 3. [Related pubchem assays (depositor defined):AID1777, AID1785, AID1786, AID1966, AID2133, AID2136, AID2284, AID2285, AID2352]; format: functional
[19] = molecular target: T5, Kappa-type opioid receptor; assay: SAR analysis of small molecule agonists of the kappa opioid receptor via a luminescent beta-arrestin assay - Set 3. [Related pubchem assays (depositor defined):AID1777, AID1785, AID1786, AID1966, AID2133, AID2136, AID2284, AID2500]; format: functional
Protein RecA [20] = molecular target: T7, Protein RecA (Mycobacterium tuberculosis, UniProt P9WHJ3); assay: RecA Intein Measured in Biochemical System Using Plate Reader - 2047-02_Inhibitor_Dose_DryPowder_Activity. [Related pubchem assays (depositor defined):AID2223]; parameters: species or system Mycobacterium tuberculosis H37Rv
T7 sequence (P9WHJ3 whole entry): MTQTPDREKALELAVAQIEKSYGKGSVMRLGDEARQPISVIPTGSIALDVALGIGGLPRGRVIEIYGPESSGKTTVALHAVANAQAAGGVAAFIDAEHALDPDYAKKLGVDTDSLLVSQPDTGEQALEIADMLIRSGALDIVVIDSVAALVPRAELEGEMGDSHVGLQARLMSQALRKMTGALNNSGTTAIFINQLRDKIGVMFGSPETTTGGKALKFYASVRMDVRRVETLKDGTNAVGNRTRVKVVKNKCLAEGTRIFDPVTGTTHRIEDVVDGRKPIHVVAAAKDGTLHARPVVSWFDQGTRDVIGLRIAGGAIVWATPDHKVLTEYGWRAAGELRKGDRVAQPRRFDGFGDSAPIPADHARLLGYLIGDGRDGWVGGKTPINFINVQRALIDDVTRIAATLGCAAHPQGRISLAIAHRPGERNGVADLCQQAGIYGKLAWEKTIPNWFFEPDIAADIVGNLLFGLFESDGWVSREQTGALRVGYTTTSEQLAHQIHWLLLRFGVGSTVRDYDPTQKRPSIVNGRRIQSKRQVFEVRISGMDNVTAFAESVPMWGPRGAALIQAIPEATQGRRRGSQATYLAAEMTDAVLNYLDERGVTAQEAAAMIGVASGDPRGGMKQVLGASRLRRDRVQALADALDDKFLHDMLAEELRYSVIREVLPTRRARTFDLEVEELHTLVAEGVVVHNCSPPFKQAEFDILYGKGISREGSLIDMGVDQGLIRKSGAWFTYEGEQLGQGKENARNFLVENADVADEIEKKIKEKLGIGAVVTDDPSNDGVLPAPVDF

Protein RecA [21] = molecular target: T7, Protein RecA; assay: Fluorescence Cell-Free Homogeneous Dose Retest to Identify Inhibitors of RecA-Intein Splicing Activity. [Related pubchem assays (depositor defined):AID2097, AID2223, AID489010, AID492950]; format: functional
cells = format: functional
[22] = GFP fluorescence signal inhibitors, dose response, artefact control, biochemical, plate reader, dry powder (AID 493243)
[23] = molecular target: T8, Replicative DNA helicase DnaB (Mycobacterium tuberculosis, UniProt P9WMR3); assay: DnaB Intein secondary assay Measured in Biochemical System Using Plate Reader - 2047-04_Inhibitor_Dose_DryPowder_Activity. [Related pubchem assays (depositor defined):AID2223]
T8 sequence (P9WMR3 whole entry): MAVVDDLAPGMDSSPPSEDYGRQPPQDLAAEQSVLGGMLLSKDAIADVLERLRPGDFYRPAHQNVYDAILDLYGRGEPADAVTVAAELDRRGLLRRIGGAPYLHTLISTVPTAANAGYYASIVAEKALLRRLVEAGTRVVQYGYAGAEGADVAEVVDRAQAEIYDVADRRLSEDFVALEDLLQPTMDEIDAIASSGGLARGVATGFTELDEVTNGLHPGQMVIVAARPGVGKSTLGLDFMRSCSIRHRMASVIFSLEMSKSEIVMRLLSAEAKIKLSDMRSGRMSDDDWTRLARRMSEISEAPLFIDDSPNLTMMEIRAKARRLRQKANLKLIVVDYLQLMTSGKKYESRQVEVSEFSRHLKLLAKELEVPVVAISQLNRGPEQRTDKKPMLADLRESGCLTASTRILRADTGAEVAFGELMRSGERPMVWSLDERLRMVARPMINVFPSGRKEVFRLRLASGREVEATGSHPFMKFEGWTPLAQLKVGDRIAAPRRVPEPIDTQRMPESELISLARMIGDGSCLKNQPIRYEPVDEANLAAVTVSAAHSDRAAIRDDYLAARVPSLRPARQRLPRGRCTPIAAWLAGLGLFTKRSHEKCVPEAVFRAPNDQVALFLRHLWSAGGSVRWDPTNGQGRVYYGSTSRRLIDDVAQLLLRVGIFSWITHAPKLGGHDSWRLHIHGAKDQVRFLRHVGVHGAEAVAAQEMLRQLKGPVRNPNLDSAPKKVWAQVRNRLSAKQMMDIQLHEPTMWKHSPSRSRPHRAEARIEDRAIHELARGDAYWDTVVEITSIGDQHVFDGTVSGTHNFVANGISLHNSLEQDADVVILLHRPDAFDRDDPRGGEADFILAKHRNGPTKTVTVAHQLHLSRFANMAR

[24] = molecular target: T8, Replicative DNA helicase DnaB; assay: DnaB intein splicing inhibitors, dose response, biochemical, cell-free fluorescence (AID 449749); format: functional

T4 sequence (P41143 whole entry): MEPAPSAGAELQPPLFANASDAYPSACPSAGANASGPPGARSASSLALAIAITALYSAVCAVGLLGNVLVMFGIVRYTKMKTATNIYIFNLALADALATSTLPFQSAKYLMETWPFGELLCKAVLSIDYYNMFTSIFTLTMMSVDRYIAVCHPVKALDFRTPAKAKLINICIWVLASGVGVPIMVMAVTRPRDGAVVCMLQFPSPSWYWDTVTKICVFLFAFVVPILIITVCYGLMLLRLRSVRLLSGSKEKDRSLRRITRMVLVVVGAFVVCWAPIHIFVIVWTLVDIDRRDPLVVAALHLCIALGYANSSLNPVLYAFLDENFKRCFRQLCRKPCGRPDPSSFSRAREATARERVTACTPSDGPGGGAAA
T5 sequence (P41145 whole entry): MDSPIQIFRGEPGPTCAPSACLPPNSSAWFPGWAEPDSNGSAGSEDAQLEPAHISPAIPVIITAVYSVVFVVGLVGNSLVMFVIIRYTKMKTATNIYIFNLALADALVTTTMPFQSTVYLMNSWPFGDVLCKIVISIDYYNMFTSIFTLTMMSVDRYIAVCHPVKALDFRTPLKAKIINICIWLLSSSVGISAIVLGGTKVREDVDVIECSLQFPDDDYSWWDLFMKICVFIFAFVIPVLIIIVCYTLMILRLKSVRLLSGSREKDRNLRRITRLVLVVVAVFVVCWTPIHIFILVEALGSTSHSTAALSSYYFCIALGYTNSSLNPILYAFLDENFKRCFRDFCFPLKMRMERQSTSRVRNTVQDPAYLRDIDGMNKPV
T3 sequence (P35372 whole entry): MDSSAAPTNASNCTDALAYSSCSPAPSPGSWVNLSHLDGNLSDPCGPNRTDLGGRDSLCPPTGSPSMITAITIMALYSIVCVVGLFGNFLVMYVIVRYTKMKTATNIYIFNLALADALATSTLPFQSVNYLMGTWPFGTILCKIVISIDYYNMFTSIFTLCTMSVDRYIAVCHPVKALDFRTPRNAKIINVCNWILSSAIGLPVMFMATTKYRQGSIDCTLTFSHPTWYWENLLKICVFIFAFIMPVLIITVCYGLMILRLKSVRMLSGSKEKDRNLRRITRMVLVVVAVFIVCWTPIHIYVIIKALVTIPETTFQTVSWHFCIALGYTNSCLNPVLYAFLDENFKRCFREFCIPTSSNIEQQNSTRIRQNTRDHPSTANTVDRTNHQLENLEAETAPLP
Chain of Sphingosine 1-phosphate receptor 1 (P21453 whole entry): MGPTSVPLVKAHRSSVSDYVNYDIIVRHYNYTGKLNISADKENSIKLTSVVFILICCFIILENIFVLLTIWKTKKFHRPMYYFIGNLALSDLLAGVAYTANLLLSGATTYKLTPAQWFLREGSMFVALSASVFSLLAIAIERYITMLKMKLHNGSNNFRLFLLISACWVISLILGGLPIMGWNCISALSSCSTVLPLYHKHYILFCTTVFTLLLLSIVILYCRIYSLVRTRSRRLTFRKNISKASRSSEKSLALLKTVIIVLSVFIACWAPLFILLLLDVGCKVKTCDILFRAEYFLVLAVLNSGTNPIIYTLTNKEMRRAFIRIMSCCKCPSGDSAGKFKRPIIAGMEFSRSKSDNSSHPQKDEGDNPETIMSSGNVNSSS
Chain of Sphingosine 1-phosphate receptor 4 (O95977 whole entry): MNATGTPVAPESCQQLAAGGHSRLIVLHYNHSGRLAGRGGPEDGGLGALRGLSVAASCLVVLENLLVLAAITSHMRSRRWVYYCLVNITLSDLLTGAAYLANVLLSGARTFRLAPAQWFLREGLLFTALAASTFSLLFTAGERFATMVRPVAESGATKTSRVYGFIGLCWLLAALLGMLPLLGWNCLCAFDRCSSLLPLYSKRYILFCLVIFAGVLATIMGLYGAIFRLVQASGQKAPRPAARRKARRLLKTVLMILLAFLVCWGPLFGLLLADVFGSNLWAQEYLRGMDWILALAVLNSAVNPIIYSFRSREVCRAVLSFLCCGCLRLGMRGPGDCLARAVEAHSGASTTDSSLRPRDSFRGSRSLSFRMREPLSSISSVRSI
Chain of Beta-galactosidase (Q8VNN2 whole entry): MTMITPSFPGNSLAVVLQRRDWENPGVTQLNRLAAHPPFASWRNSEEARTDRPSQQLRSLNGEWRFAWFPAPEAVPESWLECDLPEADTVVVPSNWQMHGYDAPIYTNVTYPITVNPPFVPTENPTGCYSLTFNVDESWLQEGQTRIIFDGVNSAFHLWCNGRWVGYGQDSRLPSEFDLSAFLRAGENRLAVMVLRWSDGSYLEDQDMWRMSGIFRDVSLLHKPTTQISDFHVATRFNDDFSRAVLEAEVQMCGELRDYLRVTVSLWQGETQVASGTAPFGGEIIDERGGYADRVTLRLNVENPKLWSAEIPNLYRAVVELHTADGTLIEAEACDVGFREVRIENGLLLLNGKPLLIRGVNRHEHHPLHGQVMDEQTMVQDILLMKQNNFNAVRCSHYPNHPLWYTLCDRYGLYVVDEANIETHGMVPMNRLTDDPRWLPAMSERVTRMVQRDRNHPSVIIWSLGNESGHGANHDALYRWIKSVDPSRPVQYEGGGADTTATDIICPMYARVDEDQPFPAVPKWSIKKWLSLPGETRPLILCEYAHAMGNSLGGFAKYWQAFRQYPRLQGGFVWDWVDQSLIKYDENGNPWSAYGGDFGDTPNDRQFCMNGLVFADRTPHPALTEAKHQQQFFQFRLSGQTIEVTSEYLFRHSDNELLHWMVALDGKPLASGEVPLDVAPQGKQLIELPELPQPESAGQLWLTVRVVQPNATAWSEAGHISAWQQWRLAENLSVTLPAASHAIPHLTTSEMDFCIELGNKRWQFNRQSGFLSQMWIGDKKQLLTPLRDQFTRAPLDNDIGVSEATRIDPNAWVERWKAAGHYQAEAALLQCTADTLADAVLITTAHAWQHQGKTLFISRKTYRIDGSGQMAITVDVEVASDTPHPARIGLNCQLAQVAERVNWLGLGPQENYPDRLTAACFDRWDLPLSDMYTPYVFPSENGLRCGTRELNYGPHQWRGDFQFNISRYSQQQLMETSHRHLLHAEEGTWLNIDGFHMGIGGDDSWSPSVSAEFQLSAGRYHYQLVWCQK

For `COc1ccc(C2SCC(=O)N2CCCN(C)C)cc1` (configuration not stated), the IC50 [1] was > 79.4 µM (inactive), the IC50 [2] was > 79.4 µM (inactive) and the IC50 [3] was > 79.4 µM (inactive).

In the case of `COc1cc(/C=C/c2ccc3cccc(O)c3n2)ccc1O`, the EC50 (Mu-type opioid receptor [4]) is reported as > 32 µM (inactive), the CC50 (Vero [5]) is reported as 12.4 µM (active) and the IC50 [6] is reported as > 32 µM (inactive). The IC50 [7] was 11.9 µM (active), the IC50 (Vero [8]) was > 25 µM (active) and the EC50 [9] was > 32 µM (inactive). The IC50 [10] was > 32 µM, the EC50 (Beta-galactosidase) was > 31.5 µM (inactive) and the IC50 [11] was 72.4 µM (active).

With `CC(=O)Oc1ccc2cc(-c3nc4ccccc4n3C)c(=O)oc2c1` the EC50 [12] was 94.4 µM (active), the EC50 (H4) was 4.66 µM (active) and the EC50 [13] was 53.2 µM (active). For the same molecule, the EC50 [14] was 191 µM (not active) and the EC50 [15] was > 49.8 µM (inactive).

With `CC(=O)Oc1ccc(CSc2nnc(-c3ccccn3)n2Cc2cccs2)cc1` the EC50 [16] was > 32 µM (inactive), the EC50 [17] was > 32 µM (inactive) and the EC50 (Mu-type opioid receptor [18]) was > 32 µM (inactive). The EC50 [19] was > 20 µM (inactive).

With `C/C(=N\NC(=O)c1ccncc1)c1cc2ccccc2oc1=O` the AC50 (Protein RecA [20]) was 3.08 µM (active), the EC50 (Protein RecA [21]) was 2.86 µM (active) and the IC50 (cells) was 0.55 µM (active). The AC50 [22] was 218 µM (active), the AC50 [23] was 36.9 µM (active) and the AC50 [24] was 2.77 µM (active).
